Source: patent US20260242320A1, “USE OF CANNABIDIOL DERIVATIVE IN PREPARATION OF MEDICAMENT” (priority 2023, published 2026)
“Also recorded” adds a separate entry of the source.

Key:
[1] = system: LPS-induced IL-1β, TNF-α, IL-6, iNOS, IL-10 mRNA in BV-2 cells; assay: qRT-PCR of proinflammatory and M1/M2 marker mRNAs in LPS-treated BV-2 cells; assay type: cell-based
Protocol: (§1) Total RNA was extracted from cells or mouse brains using the RNeasy Mini Kit. Isolated RNA was reverse-transcribed into cDNA using an RT2 Easy First Strand cDNA Synthesis Kit following the manufacturer's protocols. PCR amplification was conducted using synthetic primers, SYBR Green, and a TOptical Real-Time qPCR Thermal Cycler (Analytik Jena, Thuringia, Germany). The data were analyzed by the […] method, and Rpl711 or Rpl27 was used as an internal control.

[2] = system: morphine-conditioned mice; assay: Morphine-induced conditioned place preference (CPP); assay type: in vivo; settings: 0.2 mg/kg i.p.
Protocol: (§2) Conditional place conditioning (CPP) was conducted using the classic 10-consecutive-day procedure. On days 1 and 2, each mouse was separately placed into the CPP apparatus for 15 min to habituate the apparatus. On day 3 (preconditioning), the time spent in each compartment was recorded to determine any preference for the two compartments. Mice were divided into three groups: vehicle group, 7.5 mg/kg morphine, as well as 7.5 mg/kg morphine+0.2 mg/kg CIAC001. During the conditioning phase, mice were separately isolated in the compartment for 30 min on 6 consecutive days. Mice were given morphine on days 4, 6, and 8, and vehicle (5 mL/kg) was administered on days 5, 7, and 9. The postconditioning phase was carried out 24 h after the last conditioning session. Each mouse was placed in the apparatus and explored freely, and the time spent in each compartment was recorded for 15 min. The CPP score(s) was calculated using the time spent in the drug-paired compartment minus the time spent in the vehicle-paired compartment.

[3] = system: IL-1β in mPFC, NAc and VTA; assay: IL-1β expression in brain regions after chronic morphine; assay type: in vivo; settings: mice
Protocol: as §1
as §2, with “The postconditioning phase was carried out 24 h after the last conditioning session.” left out

[4] = CPP assay for rewarding effect of CIAC001; assay type: in vivo, mice; settings: 20 mg/kg i.p.
Protocol: as §2, with “Mice were divided into three groups: vehicle group, 7.5 mg/kg morphine, as well as 7.5 mg/kg morphine+0.2 mg/kg CIAC001.” left out

Open field test = assay type: in vivo, mice; settings: 20 mg/kg i.p., seven consecutive days
Protocol: After two days of habitation, each mouse was placed in the open field, and the moving distances within 1 h and the grooming and rubbing numbers within the first 15 min was recorded as vehicle control (pre-test group). Next, each mouse was administered CIAC001 (20 mg/kg; i.p.) once daily for 7 days. 24 h after the last administration, the moving distances and the grooming and rubbing numbers were measured again to compare changes before and after CIAC001 treatment.

[5] = molecular target: T1, nuclear PKM2 in BV-2 cells (Mus musculus, UniProt P52480); assay: Subcellular localization of PKM2; assay type: cell-based; settings: BV-2, LPS 200 ng/mL, 10 μM, 6 h
T1 construct: endogenous in cells; host or cells: BV-2 cells
T1 sequence (P52480 whole entry): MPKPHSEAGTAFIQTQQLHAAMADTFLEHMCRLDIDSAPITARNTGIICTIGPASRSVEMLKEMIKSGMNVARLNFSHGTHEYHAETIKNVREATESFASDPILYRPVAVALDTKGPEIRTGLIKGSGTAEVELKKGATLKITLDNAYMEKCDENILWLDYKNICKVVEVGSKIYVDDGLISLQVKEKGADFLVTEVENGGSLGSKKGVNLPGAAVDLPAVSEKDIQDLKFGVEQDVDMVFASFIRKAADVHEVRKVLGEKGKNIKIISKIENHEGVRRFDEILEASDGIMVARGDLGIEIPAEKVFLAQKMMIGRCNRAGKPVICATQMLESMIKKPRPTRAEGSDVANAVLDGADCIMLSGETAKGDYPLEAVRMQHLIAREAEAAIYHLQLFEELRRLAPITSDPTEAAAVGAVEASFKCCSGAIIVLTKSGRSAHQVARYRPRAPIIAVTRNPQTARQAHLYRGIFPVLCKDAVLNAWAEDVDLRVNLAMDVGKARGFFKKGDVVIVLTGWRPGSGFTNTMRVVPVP
Protocol: BV-2 cells were treated with 200 ng/mL LPS and 10 μM CIAC001 for 6 h. Cells were washed, harvested with ice-cold PBS, and centrifuged at 800 g for 5 min at 4° C. Cells were lysed in cytoplasmic lysis buffer (10 mM HEPES pH 7.6, 10 mM KCl, 0.5 mM […], 1.5 mM MgCl2, and 1 mM DTT) plus the protease inhibitor cocktail for 20 min on ice. A final concentration of 0.5% NP40 was added to the lysate and incubated for 2 min on ice. Lysates were centrifuged at 2000 g for 10 min at 4° C., and the supernatants were cytoplasmic lysates. Pellets were washed twice with ice-cold PBS. Nuclear pellets were lysed for 30 min on ice with nuclear lysis buffer (10 mM Tris-HCl pH 7.6, 450 mM NaCl, 2 mM MgCl2, 0.5% NP-40, and 1 mM DTT) plus a protease inhibitor cocktail. Lysates were centrifuged at 12,000 g for 10 min at 4° C., and the supernatants were nuclear lysates. The nuclear lysates were diluted with low-salt buffer (10 mM Tris-HCl pH 7.6 and 2 mM MgCl2) to a final salt concentration of 150 mM in the lysates. The total protein concentrations in the nuclear and cytoplasmic extracts were determined by the BCA assay and then normalized. The lysate supernatants were denatured in 2× Laemmli sample buffer at 100° C. for 8 min for western blotting with the corresponding antibody.

[6] = system: lactate dehydrogenase A (LDHA) mRNA; assay: LDHA mRNA in LPS-treated BV-2 cells; assay type: cell-based; settings: 3 hours
Protocol: as §1

Hif-1α = Hif-1α western blot in mPFC after chronic morphine; assay type: in vivo; settings: mice
Source text: ImageJ was used for densitometric analysis.

[7] = system: hippocampus of transgene mice; assay: Potential of hippocampus (LTP) measurement; assay type: in vivo
Protocol: Mouse brains were quickly removed following anesthetization using isoflurane and euthanasia by cervical dislocation and immersed in pre-chilled artificial cerebrospinal fluid (ACSF) for 3 minutes while continuously supplying O2 to the fluid to maintain brain activity. Then, the brain was then quickly fixed with glue onto a platform of a vibratome (with the olfactory bulb facing up and the hindbrain facing down) and placed in well-oxygenated, pre-chilled ACSF. The brain was then sliced at 300 μm per slice with a cutting speed of 0.14 mm/s, starting from the appearance of the hippocampus. The collected brain slices were divided into left and right hemispheres and incubated in an O2-filled water bath at 32° C. for 2 hours. Afterwards, computer software used for recording was adjusted to ensure a stable baseline. The incubated brain slices were placed in the center of an electrode, with the brightest line of the CA1 region in the hippocampus spanning diagonally across the baseline, and fixed with a grid and iron block inside the recording device. Each potential in the electrode was stimulated to find the optimal stimulation point. High-frequency stimulation was then performed at the optimal point. Software was then used to record the changes in electrical potential at each electrode point.

[8] = Pharmacokinetic profiles in brain and plasma after oral administration; assay type: in vivo, mice; settings: male, BALB/c, mouse, 10 mg/kg p.o., read-out: B/P ratio
[9] = LPS-treated cells, mRNA by qPCR

For `C=C(C)[C@@H]1CCC(C)=C[C@H]1c1c(O)cc(C(C)n2nccn2)cc1O` (stereo partly drawn) [CIAC001, (1′R,2′R)-4-(1-(2H-1,2,3-Triazol-2-yl)ethyl)-5′-methyl-2′-(prop-1-en-2-yl)-1′,2′,3′,4′-tetrahydro-[1,1′-biphenyl]-2,6-diol], which “LPS-induced overexpression of IL-1β mRNA” value ([1]; BV-2 cells) is on record?
Its value is “concentration-dependently inhibited”.

And the “LPS-induced overexpression of IL-6 mRNA” value ([1]; BV-2 cells)?
Its value is “concentration-dependently inhibited”.

What about the “LPS-induced overexpression of TNF-α mRNA” value ([1]; BV-2 cells) of the same compound?
Its value is “concentration-dependently inhibited”.

What about the “expression of M1 phenotype markers IL-1β and iNOS” value [1, 9] of the same compound?
The value was “inhibited LPS-induced increased expression”.

What about the “expression of M2 phenotype marker IL-10” value [1, 9] of the same compound?
The value was “attenuated LPS-induced decreased expression”.

And the “expression of morphine-induced CPP” value [2]?
The value was “substantially decreased; also recorded: ameliorated”.

What about the “morphine-induced IL-1β overexpression in mPFC, NAc and VTA” value [3] of the same compound?
Its value is “inhibited”.

And the “rewarding effect (CPP after 6 consecutive days of training)” value [4]?
The value was “did not show any effect on CPP”.

What about the “grooming and rubbing behaviors (open field)” value (Open field test) of the same compound?
Its value is “No apparent differences”.

And the “motor activity (open field)” value (Open field test)?
Its value is “No apparent differences”.

And the “LPS-induced translocation of nuclear PKM2” value [5]?
Its value is “completely reversed; also recorded: inhibited LPS-induced translocation of nuclear PKM2”.

What about the “LPS-induced LDHA mRNA overexpression” value [6] of the same compound?
Its value is “significantly inhibited”.

And the “chronic morphine-induced Hif-1α overexpression in mPFC” value (Hif-1α)?
Its value is “inhibit chronic morphine-induced Hif-1α overexpression”.

What about the “increase of hippocampal potential” value [7] of the same compound?
Its value is about 500%.

What about the Kp at 0.083 h ([8]; 0.083 h) of the same compound?
The Kp at 0.083 h was 2.07 ± 0.907.

What about the Kp at 0.25 h ([8]; 0.25 h) of the same compound?
The Kp at 0.25 h was 2.78 ± 0.389.
